Patent US8642602B2, “Method of inhibiting fibrogenesis and treating fibrotic disease” (University of Georgia Research Foundation, Inc., priority 2009, dated 2014)

Columns and labels:
collagen I = test: Further testing: fibrogenic activity measured by production of collagen I; assay type: cell-based; conditions: 1 μM, one dose at start of culturing, 7 days (FIG. 11)
From the text: RNA was also isolated on days 4 and 7.

hepatic stellate cells = test: Induction of fibrogenic genes in cultured hepatic stellate cells; assay type: cell-based, rat; conditions: freshly isolated quiescent hepatic stellate cells in culture
From the text: EZH2 is therefore a negative regulator of PPARγ transcription in myofibroblasts, but also appears to play a wider regulatory role in promoting MTD and wound-healing. Furthermore, the stimulation of EZH2 expression and subsequent methylation of H3K27 in the downstream exons of the PPARγ gene is identified as a second mechanism through which MeCP2 achieves transcriptional silencing of PPARγ. The combined effect of H3K9 methylation and HP1α binding at the 5′ end of the PPARγ gene with H3K27 methylation and PRC1 recruitment in the downstream exons would be to prevent both transcriptional initiation and elongation which reflects the biological importance of suppressing PPARγ expression for MTD and wound-healing. […]
Total RNA was purified from isolated cells using the Total RNA purification kit (Qiagen, UK) following the manufacturer's instructions and was used to generate first strand cDNA utilising a random hexamer primer [p(dN)6] and MMLV reverse transcriptase. […] After each run, a dissociation curve was performed to ensure that no primer dimers contaminated the quantification and that the product had the expected melting temperature. All PCR reactions were normalized to the internal control and relative level of transcriptional difference calculated using the following equation: [1/(2A)]×100.

EZH2 = conditions: Tan J et al, 2007; cited from earlier work
[1] = tested on: α1 (I) collagen and TIMP-1 transcripts; test: Acute CCl4 liver injury, liver transcripts by qPCR; assay type: in vivo, C57Bl6 mice; conditions: mice, 15 mg/m^2 IP 2 hours prior to single dose of CCl4, sacrificed 24 h after
Description: FIG. 5—A.) and B.) 5×10^6 rat MFBs were electroporated as outlined “Materials and methods”. 2 μgs control siRNA or siRNA designed to target rat EZH2 was used per transfection. Total RNA was prepared from control or rat EZH2 siRNA transfected cells 48 h after the electroporation. First strand cDNA was synthesised which was then utilised as a template in qPCR using primers for specific amplification of EZH2 (in A.) and PPARγ (in B.). C.) Fully differentiated MFBs were treated with 1 μM 3-deazaneplanocin A or vehicle for 72 h at which time total RNA was prepared from control or drug treated cells. First strand cDNA was synthesised which was then utilised as a template in qPCR using primers for specific amplification of PPARγ. D.) Freshly isolated rat HSC were plated out onto plastic in two separate dishes and one dish treated with 1 μM 3-deazaneplanocin A at 12 h following the HSC isolation. […] Results are expressed as percent control of 3-deazaneplanocin A and olive oil vehicle injected mice (data not included in the graph).
3 deazaneplanocin A was given to two groups of four C57Bl6 mice (15 mg/m^2 which was calculated to be 0.428 μg of drug per g body weight of a mouse) was given IP 2 hours prior to a single dose of CCl4 (CCl4/olive oil in a 1:1 [vol/vol] ratio at 1 μl per g body weight). […]

With `Nc1nc(Cl)cc2c1ncn2C1COC(CO)O1` (stereo not drawn) [Compound 8] as the compound, how does the “inhibition of collagen I production at 7 days” value (collagen I) read?
The value was “significant inhibition”.

With `Nc1nccc2c1ncn2[C@@H]1C=C(CO)[C@@H](O)[C@H]1O` [Compound 3, 3-deazaneplanocin A] as the compound, how does the “induction of fibrogenic gene al (I) collagen” value (hepatic stellate cells) read?
The value was “suppressed the induction”.

And the “induction of fibrogenic gene tissue inhibitor of metalloproteinase-1 (TIMP-1)” value (hepatic stellate cells)?
The value was “suppressed the induction”.

What about the “effect on cellular EZH2” value (EZH2) of the same compound?
Its value is “depletes cells of EZH2”.

And the “induction of transcripts for TIMP-1 in injured liver” value [1]?
The value was “suppressed the induction”.

And the “induction of transcripts for α1 (I) collagen in injured liver” value [1]?
Its value is “suppressed the induction”.
